{"source": "patent US11400088B2", "about": "“Uses of compound in preparation of drugs for treating brain glioma” (BEIJING PEARL BIOTECHNOLOGY LIMITED LIABILITY COMPANY, priority 2015, dated 2022)", "key": {"[1]": {"tested_on": "human glioma cell line U87", "assay": "MTT inhibition of glioblastoma cell proliferation, U87 initial cells", "format": "cell-based", "details": "72 hours, read-out: Inhibitory activities (IC50, μM) of tested compounds on cells", "description": "The compound represented by formula A and crizotinib as well as compounds represented by formulas B to H that respectively have a structure similar to the structure of formula A were employed to carry out the experiment of testing the activity of inhibiting glioblastoma cell proliferation.\n(§1) The U87 cells were infected with any of the lentiviruses as prepared above and screened by applying puromycin (0.5 μg/mL for screening, and 0.2 μg/mL for maintenance) to establish cell models which stably expressed the fusion proteins. The cell models were verified for the expression of the fusion proteins and the transcription of the fusion genes by immunoblotting and reverse transcription PCR, and cell lines which stably expressed fusion proteins ZM1-2 and ZM2-2 respectively were obtained finally and named as “PCDH-ZM1-2 expressing cells” and “PCDH-ZM2-2 expressing cells” respectively. Similarly, U87 cells were infected with the lentivirus PCDH-blank with the blank vector to obtain “PCDH-blank expressing cells” as a blank reference.\n(§2) Those U87 cells which were cultured in a large dish and were in a logarithmic stage were washed once with sterile PBS, and then digested with 0.25% trypsin for 2 min. After all cells were digested to detach, complete DMEM medium containing 10% fetal bovine serum (FBS) was used to stop the digestion. The cells were counted and the cell concentration was adjusted to 20,000 cells/ml. Then, the cells were seeded into a Corning 96-well plate (2,000 cells/well) using a multi-channel pipette, and incubated in a 5% CO2 incubator at 37° C. for 24 hours. The compounds to be tested (crizotinib and the compounds represented by formulas A to H) were respectively dissolved in DMSO to prepare stock solutions, and then the stock solutions and the complete medium were used to prepare solutions with different concentrations of medicaments (0, 5, 10, 20, 40, 60, 80, 100 μM). The cells were incubated in the incubator for additional 72 hours, and then 20 μl of 3-(4,5-dimethylthiazole-2)-2,5-diphenyl tetrazolium bromide (MTT) was added into each well. After 1-3 hours in the incubator, the absorbance at 490 nm was determined using a microplate reader. The inhibition rate corresponding to each concentration was calculated, and the value of IC50 was calculated with GraphPad software."}, "[2]": {"tested_on": "PCDH-blank expressing cells (U87)", "assay": "MTT inhibition of glioblastoma cell proliferation, blank reference cells", "format": "cell-based", "details": "Homo sapiens, U-87 MG, 72 hours, read-out: Inhibitory activities (IC50, μM) of tested compounds on cells", "source_text": "(§3) First, a lentiviral vector PCDH (PCDH-EF1-MCS-T2A-Puro, SBI, product No.: CD510B-1, structure shown in FIG. 4) was used, and the nucleotide sequence as shown by SEQ ID NO: 7 or SEQ ID NO: 8 was cloned into the vector according to the instructions thereof, to prepare expression vectors which expressed fusion proteins respectively represented by SEQ ID NO: 3 and SEQ ID NO: 4. The expression vectors were respectively named and marked as “PCDH-ZM1-2” and “PCDH-ZM2-2”. Then, a viral packaging plasmid (SBI, product No. LV500A-1) was used to co-infect 293T cells with one of the vectors to prepare a lentivirus. The same method was performed to package the lentiviral vector PCDH and co-infect 293T cells, to prepare a lentivirus with the blank vector, which was named as “PCDH-blank”.\nas §1, §2"}, "[3]": {"tested_on": "PCDH-ZM1-2 expressing cells (U87)", "assay": "MTT inhibition of glioblastoma cell proliferation, ZM1-2 fusion protein expressing cells", "format": "cell-based", "details": "Homo sapiens, 72 hours, read-out: Inhibitory activities (IC50, μM) of tested compounds on cells", "source_text": "as §3, §1, §2"}, "[4]": {"tested_on": "PCDH-ZM2-2 expressing cells (U87)", "assay": "MTT inhibition of glioblastoma cell proliferation, ZM2-2 fusion protein expressing cells", "format": "cell-based", "details": "Homo sapiens, 72 hours, read-out: Inhibitory activities (IC50, μM) of tested compounds on cells", "source_text": "as §3, §1, §2"}, "[5]": {"tested_on": "PCDH-ZM2-2 expressing cells", "assay": "Inhibition of subcutaneous tumor growth in ZM2-2 mice (1)", "format": "in vivo, BALB/c (nu/nu) nude mice", "details": "10 mg/KG/day by gavage, vs normal saline, FIG. 5", "description": "First, a tumor-bearing mouse model was established. BALB/c (nu/nu) maternal nude mice, aged 6-8 weeks, with a weight of about 16-18 g were purchased from Vital River. “PCDH-blank expressing cells” and “PCDH-ZM2-2 expressing cells” prepared in Example 4 were prepared into suspensions of 10^7 cells/ml with PBS respectively. Nude mice sterilized with 75% ethanol were subcutaneously injected with 100 μl of the cell suspensions at the right scapular area, in which the PCDH-blank expressing cells were injected into seven nude mice, and PCDH-ZM2-2 expressing cells were injected into 21 nude mice. […] The tumor size and variations in mouse weight were measured twice a week. […]\nWhen the tumors grew to have a volume of about 100 mm^3, the ZM2-2 mice (1) were divided into three groups according to mean tumor size, including a group of 7 mice which were administered with the compound represented by formula A, a group of 7 mice which were administered with crizotinib, and a control group of 7 mice. […] The tumor size and variations in mouse weight were measured twice a week. The tumor diameter was measured with a vernier caliper, and the equation for calculating tumor volume was: tumor volume=0.5*Length*Width^2."}, "[6]": {"tested_on": "PCDH-ZM2-2 expressing cells", "assay": "Intracranial tumor model, survival and brain MRI, ZM2-2 mice (2)", "format": "in vivo, nude mice", "description": "(§4) First, a tumor-bearing mouse model was established. “PCDH-blank expressing cells” and “PCDH-ZM2-2 expressing cells” prepared in Example 4 were prepared into suspensions of 10^5 cells/5 μl with PBS respectively. Nude mice sterilized with 75% ethanol were inoculated with […] the cell suspensions. The cell inoculation position (2 mm away on the right side of anterior fontanel, and 2 mm backward) was determined using a brain stereotaxic apparatus for mouse; the injection depth was 3.5 mm and then elevated by 0.6 mm; and 5 μl of cell solutions respectively was injected to each mouse. After injection, the mice were kept still for 1 min, and then received a conventional skin closure. After intracranial tumors were observed, the tumor-bearing mice obtained with the “PCDH-blank expressing cells” were named as “vector mice (2)”, and the tumor-bearing mice obtained with the “PCDH-ZM2-2 expressing cells” were named as “ZM2-2 mice (2)”.\n(§5) 8 Vector mice (2) and 8 ZM2-2 mice (2) were respectively administered with the compound represented by the formula A at a dose of 50 mg/KG weight/day. The compound was administrated once a day by gavage. At the same time, another group of 8 ZM2-2 mice (2) were given with normal saline, as a control group. The experiment lasted for over 6 weeks.\nThe brains of ZM2-2 mice (2) given with the compound represented by formula A were detected by nuclear magnetic resonance imaging on the 16th day after the compound represented by formula A was administered for the first time. […] See results in panel 7C.\nAnother 8 ZM2-2 mice (2) were also administered with the compound represented by formula A at a dose of 50 mg/KG weight/day. The compound was administrated once a day by gavage. Then, the compound administration was stopped on the 16th day after the first administration, and the brains were detected through nuclear magnetic resonance imaging on the 10th day after the compound withdrawal. […] Results are shown in panel 7D."}, "[7]": {"tested_on": "PCDH-blank expressing cells", "assay": "Intracranial tumor model, survival, vector mice (2)", "format": "in vivo, nude mice", "details": "50 mg/KG weight/day by gavage, over 6 weeks, FIG. 6", "description": "as §4, §5"}}, "data": [{"smiles": "C[C@@H](Oc1cc(-c2cnn(C3CCNCC3)c2)cnc1N)c1c(Cl)ccc(F)c1Cl", "note": "[Crizotinib]", "values": [{"measurement": "IC50", "setting": "[1]", "value": 2.99, "unit": "µM"}, {"measurement": "IC50", "setting": "[2]", "value": 3.27, "unit": "µM"}, {"measurement": "IC50", "setting": "[3]", "value": 8.26, "unit": "µM"}, {"measurement": "IC50", "setting": "[4]", "value": 9.76, "unit": "µM"}]}, {"smiles": "Cn1cc2cc(C(F)(F)c3nnc4ccc(-c5cnn(C6CC6)c5)nn34)c(F)cc2n1", "note": "[Formula A]", "values": [{"measurement": "IC50", "setting": "[1]", "value": 3.51, "unit": "µM"}, {"measurement": "IC50", "setting": "[2]", "value": 2.85, "unit": "µM"}, {"measurement": "IC50", "setting": "[3]", "value": 1.34, "unit": "µM"}, {"measurement": "IC50", "setting": "[4]", "value": 1.83, "unit": "µM"}, {"measurement": "growth of tumors (tumor volume)", "setting": "[5]", "value": "significantly inhibit the growth of tumors"}, {"measurement": "intracranial tumor growth after compound withdrawal by nuclear magnetic resonance imaging", "setting": "[6]; 50 mg/KG weight/day stopped on 16th day, imaged 10th day after withdrawal, panel 7D", "value": "resumed rapid growth"}, {"measurement": "intracranial tumor size by nuclear magnetic resonance imaging", "setting": "[6]; 50 mg/KG weight/day, 16th day after first administration, panel 7C", "value": "obviously became smaller"}, {"measurement": "survival time of mice", "setting": "[6]; intracranial, 50 mg/KG weight/day by gavage, over 6 weeks, FIG. 6", "value": "obviously prolonged the survival time"}, {"measurement": "survival of mice", "setting": "[7]", "value": "all survived"}]}, {"smiles": "CNC(=O)c1c(F)cc(-c2ccc3nnc(C(F)(F)c4cc5cn(C)nc5cc4F)n3n2)cc1F", "note": "[Formula B]", "values": [{"measurement": "IC50", "setting": "[1]", "value": 8.15, "unit": "µM"}, {"measurement": "IC50", "setting": "[2]", "value": 6.02, "unit": "µM"}, {"measurement": "IC50", "setting": "[3]", "value": 7.63, "unit": "µM"}, {"measurement": "IC50", "setting": "[4]", "value": 5.59, "unit": "µM"}]}, {"smiles": "Cn1cc2cc(C(F)(F)c3nnc4ccc(-c5ccc(NC(=O)C6CC6)c(F)c5)nn34)c(F)cc2n1", "note": "[Formula C]", "values": [{"measurement": "IC50", "setting": "[1]", "value": 4.78, "unit": "µM"}, {"measurement": "IC50", "setting": "[2]", "value": 5.79, "unit": "µM"}, {"measurement": "IC50", "setting": "[3]", "value": 9.45, "unit": "µM"}, {"measurement": "IC50", "setting": "[4]", "value": 12.8, "unit": "µM"}]}, {"smiles": "Cn1cc(-c2ccc3nnc(C(F)(F)c4cc5cn(C)nc5cc4F)n3n2)cn1", "note": "[Formula D]", "values": [{"measurement": "IC50", "setting": "[1]", "value": 5.56, "unit": "µM"}, {"measurement": "IC50", "setting": "[2]", "value": 4.93, "unit": "µM"}, {"measurement": "IC50", "setting": "[3]", "value": 5.22, "unit": "µM"}, {"measurement": "IC50", "setting": "[4]", "value": 7.21, "unit": "µM"}]}, {"smiles": "CC(C)n1cc(-c2ccc3nnc(C(F)(F)c4cc5cn(C)nc5cc4F)n3n2)cn1", "note": "[Formula E]", "values": [{"measurement": "IC50", "setting": "[1]", "value": 17.2, "unit": "µM"}, {"measurement": "IC50", "setting": "[2]", "value": 21.6, "unit": "µM"}, {"measurement": "IC50", "setting": "[3]", "value": 32.6, "unit": "µM"}, {"measurement": "IC50", "setting": "[4]", "value": 21.9, "unit": "µM"}]}, {"smiles": "Cn1cc2cc(C(F)(F)c3nnc4ccc(-c5cnn(C6CC6)c5)cn34)c(F)cc2n1", "note": "[Formula F]", "values": [{"measurement": "IC50", "setting": "[1]", "value": 64.4, "unit": "µM"}, {"measurement": "IC50", "setting": "[2]", "value": 58.8, "unit": "µM"}, {"measurement": "IC50", "setting": "[3]", "value": 90.3, "unit": "µM"}, {"measurement": "IC50", "setting": "[4]", "value": 125, "unit": "µM"}]}, {"smiles": "Cn1cc2cc(C(F)(F)c3nnc4ncc(-c5cnn(C6CC6)c5)cn34)c(F)cc2n1", "note": "[Formula G]", "values": [{"measurement": "IC50", "setting": "[1]", "value": 9.07, "unit": "µM"}, {"measurement": "IC50", "setting": "[2]", "value": 9.25, "unit": "µM"}, {"measurement": "IC50", "setting": "[3]", "value": 6.75, "unit": "µM"}, {"measurement": "IC50", "setting": "[4]", "value": 15.2, "unit": "µM"}]}, {"smiles": "Nc1nc2cc(F)c(Cc3nnc4ccc(-c5cnn(C6CC6)c5)nn34)cc2s1", "note": "[Formula H]", "values": [{"measurement": "IC50", "setting": "[1]", "value": 25.4, "unit": "µM"}, {"measurement": "IC50", "setting": "[2]", "value": 19.4, "unit": "µM"}, {"measurement": "IC50", "setting": "[3]", "value": 23.3, "unit": "µM"}, {"measurement": "IC50", "setting": "[4]", "value": 45.1, "unit": "µM"}]}]}
